Source: patent US20030229140A1, “Herbal molecule as potential anti-leukemic drug” (priority 2002, published 2003)
Read-outs that look alike come from different tables or passages of the source.

Experiments:
[1] = system: Normal PBMC; assay: Growth inhibition of normal individuals' PBMC by CA/PCQ; type: cell-based, human; settings: Homo sapiens; for inhibition at 50 µg/mL: 50.0 μg/ml; for inhibition at 100 µg/mL: 100.0 μg/ml
From the text: Preparation of peripheral blood mononuclear cells (PBMC) from normal individuals. Whole blood was collected and mononuclear cells were separated by Ficoll/Hypaque density gradient centrifugation.

[2] = system: Promonocytic cell line (U937); assay: Incubation of CD33+ promonocytic cell line U937 with CA/PCQ, viable cell count; type: cell-based; settings: for inhibition at 25 µg/mL: U937, 25.0 μg/ml; for inhibition at 50 µg/mL: U937, 50.0 μg/ml; for inhibition at 100 µg/mL: U937, 100.0 μg/ml
Protocol: Culture of Promonocytic cell line U937. […] This cell line is CD33^+. Incubation of CD33^+ cell line U937 with CA. […] Cells were then washed and counted for viability.

[3] = system: leukemic cells; assay: Biological activity (destruction of leukemic cells) of Piper betel fractions and HPLC peaks; type: cell-based; settings: fractions, zones and HPLC peaks of Piper betel leaf extract
Protocol: Collected material was examined for biological activity i.e. destruction of leukemic cells. […] 10 gm of above-mentioned material was loaded on Sephadex LH-20 column and chromatographed with water, water-methanol (1:1) and methanol as eluent. Three different fractions thus obtained from three different solvent systems were separately checked for biological activity. […] The column was equilibrated with methanol-water-acetic acid (23:76:1), flow rate was maintained at 1.0 ml per min and peaks were identified at 280 nm. According to the retention time (RE) different peaks could be divided into three zones, ZA/ZB and ZC (FIG. 1). ZA had 4 major peaks whereas ZB had very small to moderate 10 peaks and ZC had two distinct peaks. It was convenient to observe biological activity of three zones AA, ZB and ZC, which were separately tested on leukemia cells for destructive activity.

[4] = system: CML patient's leukemic cells; assay: Analysis of cell cycle progression and apoptosis by flow cytometry; type: cell-based, human
Protocol: Analysis of cell cycle progression and apoptosis by Flow cytometry PBMC of a CML patient was cultured in RPMI-1640 medium supplemented with 10% […] fetal bovine serum in the presence or absence of CA (100.0 μg/ml) for 48 hr. at 37° C. in 5% CO2. Cells were fixed with 40% ethanol treated with 500 μg/ml Rnase A, and then with 69 μM propidium iodide for analysis of DNA content by Flow Cytometry as described (Mitra et al., Molecular Medicine, 6:527-541, 2000).

[5] = system: AML patient's PBMC; assay: Incubation of AML patient's PBMC with CA, viable cell count; type: cell-based, human; settings: Homo sapiens, AML patient's PBMC, 48 hr, 1 × 10^5 cells/ml/well, read-out: Percent inhibition of cell growth after 48 hr of incubation
Protocol: Whole blood (10 ml each) was drawn from previously diagnosed myeloid leukemic patients, one patient was diagnosed as AML and the other one was diagnosed as CML. Mononuclear cells were separated by Ficoll/hypaque density gradient centrifugation. PBMC (1×10^5-2×10^6/ml) of myeloid leukemia patients were incubated with varied concentrations of CA for 48 hours at 37° C. in 5% CO2. Cells were then washed and counted for viability.

[6] = 24 h, Normal PBMC, 1 day, 1 × 10^5 cells per ml per well, read-out: Percentage inhibition of Cell Growth
[7] = 48 h, Normal PBMC, 2 days, 1 × 10^5 cells per ml per well, read-out: Percentage inhibition of Cell Growth
[8] = 72 h, Normal PBMC, 3 days, 1 × 10^5 cells per ml per well, read-out: Percentage inhibition of Cell Growth
[9] = Homo sapiens, U-937, 24 h, 1 day, 1 × 10^5 cells per ml per well, read-out: Percentage inhibition of Cell Growth
[10] = Homo sapiens, U-937, 48 h, 2 days, 1 × 10^5 cells per ml per well, read-out: Percentage inhibition of Cell Growth
[11] = Homo sapiens, U-937, 72 h, 3 days, 1 × 10^5 cells per ml per well, read-out: Percentage inhibition of Cell Growth
[12] = Homo sapiens, U-937, 72 h, 3 days, 2×10^5 cells per ml per well, read-out: % Inhibition of cell growth (After 3 days of incubation)
[13] = CML patient's leukemic cells, CA 100.0 μg/ml, 2 days

**Q.** How did the inhibition at 50 µg/mL [1, 6] turn out when `O=C(/C=C/c1ccc(O)c(O)c1)O[C@@H]1C[C@](O)(C(=O)O)C[C@@H](O)[C@H]1O` (single isomer, unassigned) [CA, chlorogenic acid or 3-Caffeoyl quinic acid] was run?
**A.** 6.66%

**Q.** And the inhibition at 100 µg/mL [1, 6]?
**A.** 6.66%

**Q.** And the inhibition at 50 µg/mL [1, 7]?
**A.** 10.3%

**Q.** What about the inhibition at 100 µg/mL [1, 7] of the same compound?
**A.** 17.2%

**Q.** And the inhibition at 50 µg/mL [1, 8]?
**A.** 15.2%

**Q.** And the inhibition at 100 µg/mL [1, 8]?
**A.** 19.5%

**Q.** And the inhibition at 25 µg/mL ([1]; 72 h, Normal individual's PBMC, 25.0 μg/ml, 3 days, 2×10^5 cells per ml per well, read-out: % Inhibition of cell growth (After 3 days of incubation))?
**A.** 1.03%

**Q.** What about the inhibition at 50 µg/mL ([1]; 72 h, Normal individual's PBMC, 3 days, 2×10^5 cells per ml per well, read-out: % Inhibition of cell growth (After 3 days of incubation)) of the same compound?
**A.** 1.03%

**Q.** What about the inhibition at 10 µg/mL ([2]; Homo sapiens, U-937, 24 h, U937, 10.0 μg/ml, 1 day, 1 × 10^5 cells per ml per well, read-out: Percentage inhibition of Cell Growth) of the same compound?
**A.** 8.33%

**Q.** What about the inhibition at 25 µg/mL [2, 9] of the same compound?
**A.** 16.7%

**Q.** And the inhibition at 50 µg/mL [2, 9]?
**A.** 25%

**Q.** What about the inhibition at 100 µg/mL [2, 9] of the same compound?
**A.** 45.8%

**Q.** What about the inhibition at 10 µg/mL ([2]; Homo sapiens, U-937, 48 h, U937, 10.0 μg/ml, 2 days, 1 × 10^5 cells per ml per well, read-out: Percentage inhibition of Cell Growth) of the same compound?
**A.** 44%

**Q.** And the inhibition at 25 µg/mL [2, 10]?
**A.** 52%

**Q.** And the inhibition at 50 µg/mL [2, 10]?
**A.** 64%

**Q.** What about the inhibition at 100 µg/mL [2, 10] of the same compound?
**A.** 96%

**Q.** And the inhibition at 10 µg/mL ([2]; Homo sapiens, U-937, 72 h, U937, 10.0 μg/ml, 3 days, 1 × 10^5 cells per ml per well, read-out: Percentage inhibition of Cell Growth)?
**A.** 57.1%

**Q.** What about the inhibition at 25 µg/mL [2, 11] of the same compound?
**A.** 71.4%

**Q.** And the inhibition at 25 µg/mL [2, 12]?
**A.** 16.7%

**Q.** What about the inhibition at 50 µg/mL [2, 11] of the same compound?
**A.** 89.3%

**Q.** What about the inhibition at 50 µg/mL [2, 12] of the same compound?
**A.** 25%

**Q.** What about the inhibition at 100 µg/mL [2, 11] of the same compound?
**A.** 100%

**Q.** And the inhibition at 10 µg/mL ([2]; Homo sapiens, U-937, U937, 10 μg/ml, 48 hr, 1 × 10^5 cells/ml/well, read-out: Percent inhibition of cell growth after 48 hr of incubation)?
**A.** 25%

**Q.** What about the inhibition at 15 µg/mL ([2]; Homo sapiens, U-937, U937, 15 μg/ml, 48 hr, 1 × 10^5 cells/ml/well, read-out: Percent inhibition of cell growth after 48 hr of incubation) of the same compound?
**A.** 43.7%

**Q.** And the inhibition at 20 µg/mL ([2]; Homo sapiens, U-937, U937, 20 μg/ml, 48 hr, 1 × 10^5 cells/ml/well, read-out: Percent inhibition of cell growth after 48 hr of incubation)?
**A.** 90.6%

**Q.** And the “destruction of cells (in words)” value ([2]; U937)?
**A.** destroyed

**Q.** And the “biological activity i.e. destruction of leukemic cells (in words)” value [3]?
**A.** Except peak no 6 (Rt 9.16 min) no other peaks had shown detectable activity

**Q.** What about the “apoptosis by cell-cycle analysis (in words)” value ([4]; 100.0 μg/ml, two days of culture) of the same compound?
**A.** caused apoptosis

**Q.** And the “percentage of cells in (>2n DNA)” value [4, 13]?
**A.** 56.35%

**Q.** What about the “percentage of cells in G0/G1 (2n DNA)” value [4, 13] of the same compound?
**A.** 33.13%

**Q.** And the “percentage of cells in Sub G0/G1 (apoptotic 2n DNA)” value [4, 13]?
**A.** 10.64%

**Q.** What about the inhibition at 20 µg/mL ([5]; 20 μg/ml) of the same compound?
**A.** 9.5%

**Q.** What about the inhibition at 50 µg/mL ([5]; 50 μg/ml) of the same compound?
**A.** 16.6%

**Q.** And the inhibition at 100 µg/mL ([5]; 100 μg/ml)?
**A.** 73.8%

**Q.** What about the inhibition at 500 µg/mL ([5]; 500 μg/ml) of the same compound?
**A.** 85.7%
